Measurements reported in the NIST ThermoML archive (doi:10.1016/j.fluid.2011.02.002).
Several values for one entry are separate records, joined by “and”; a condition that tells them apart may be missing. Equal entries are not always repeated.

How the values were obtained:
[1] = Closed cell (Static) method
[2] = molar heat capacity at constant pressure; details: 101.33 kPa, Liquid, Small sample (50 mg) DSC

C[S+](C)[O-] [dimethyl sulfoxide]
[1]
Details | vapor or sublimation pressure
273.65 K, Crystal | 0.00789 kPa
275.65 K, Crystal | 0.00979 kPa
278.15 K, Crystal | 0.01278 kPa and 0.01277 kPa and 0.01275 kPa
280.64 K, Crystal | 0.01655 kPa
280.65 K, Crystal | 0.01656 kPa
283.15 K, Crystal | 0.02138 kPa and 0.02137 kPa
285.65 K, Crystal | 0.02752 kPa and 0.02751 kPa
288.15 K, Crystal | 0.03531 kPa and 0.03525 kPa
290.65 K, Crystal | 0.04487 kPa and 0.04486 kPa
293.15 K, Liquid | 0.05512 kPa and 0.05509 kPa and 0.0551 kPa
295.65 K, Liquid | 0.06631 kPa and 0.06632 kPa and 0.06633 kPa
298.15 K, Liquid | 0.07965 kPa and 0.07966 kPa and 0.07964 kPa
300.65 K, Liquid | 0.09517 kPa and 0.09518 kPa
303.16 K, Liquid | 0.1134 kPa
305.66 K, Liquid | 0.1346 kPa
308.16 K, Liquid | 0.1592 kPa

O=S1(=O)CCCC1 [sulfolane]
[1], Liquid
Details | vapor or sublimation pressure
302.16 K | 0.00146 kPa
303.17 K | 0.00155 kPa and 0.00158 kPa
305.17 K | 0.00188 kPa and 0.00187 kPa
306.17 K | 0.00203 kPa
307.17 K | 0.00223 kPa and 0.00224 kPa and 0.0022 kPa
308.17 K | 0.00241 kPa and 0.0024 kPa

[2]
Details | molar heat capacity at constant pressure
304.04 K | 179.5 J/K/mol and 179.9 J/K/mol
309.14 K | 181.3 J/K/mol
309.15 K | 181.6 J/K/mol
314.25 K | 182.6 J/K/mol and 183.8 J/K/mol
319.35 K | 184.7 J/K/mol and 184.5 J/K/mol
324.46 K | 185.3 J/K/mol and 184.4 J/K/mol
329.56 K | 187.4 J/K/mol and 186.6 J/K/mol
334.66 K | 188.7 J/K/mol
334.67 K | 187.9 J/K/mol
339.77 K | 189.7 J/K/mol and 188.5 J/K/mol
344.88 K | 190.2 J/K/mol
349.98 K | 192.5 J/K/mol and 192 J/K/mol
355.09 K | 193.4 J/K/mol and 192.3 J/K/mol
